Laboratory results reported in the NIST ThermoML archive (doi:10.1016/j.jct.2019.05.011).
Numbers after ± are expanded uncertainties.

Assay: activity coefficient (dimensionless); of the first substance listed, at infinite dilution; xn = mol fraction of the nth substance listed
Settings: 101.33 kPa, Liquid, Chromatography, x1 = 0

Cc1ccccc1C [1,2-dimethylbenzene] + CC(CC(C)(C)C)CP(=O)([O-])CC(C)CC(C)(C)C.CCCCCCCCCCCCCC[P+](CCCCCC)(CCCCCC)CCCCCC
activity coefficient (313.15 K): 0.6 ± 0.04 | activity coefficient (323.15 K): 0.62 ± 0.04 | activity coefficient (333.15 K): 0.64 ± 0.04 | activity coefficient (343.15 K): 0.67 ± 0.05

Cc1cccc(C)c1 [1,3-dimethylbenzene] + CC(CC(C)(C)C)CP(=O)([O-])CC(C)CC(C)(C)C.CCCCCCCCCCCCCC[P+](CCCCCC)(CCCCCC)CCCCCC
activity coefficient (313.15 K): 0.63 ± 0.04 | activity coefficient (323.15 K): 0.65 ± 0.04 | activity coefficient (333.15 K): 0.67 ± 0.05 | activity coefficient (343.15 K): 0.7 ± 0.05

Cc1ccc(C)cc1 [1,4-dimethylbenzene] + CC(CC(C)(C)C)CP(=O)([O-])CC(C)CC(C)(C)C.CCCCCCCCCCCCCC[P+](CCCCCC)(CCCCCC)CCCCCC
activity coefficient (313.15 K): 0.6 ± 0.04 | activity coefficient (323.15 K): 0.63 ± 0.04 | activity coefficient (333.15 K): 0.65 ± 0.04 | activity coefficient (343.15 K): 0.69 ± 0.05

C=CCCCCCCCC [1-decene] + CC(CC(C)(C)C)CP(=O)([O-])CC(C)CC(C)(C)C.CCCCCCCCCCCCCC[P+](CCCCCC)(CCCCCC)CCCCCC
activity coefficient (313.15 K): 0.98 ± 0.06 | activity coefficient (323.15 K): 1.04 ± 0.07 | activity coefficient (333.15 K): 1.15 ± 0.07 | activity coefficient (343.15 K): 1.18 ± 0.08

C=CCCCCC [1-heptene] + CC(CC(C)(C)C)CP(=O)([O-])CC(C)CC(C)(C)C.CCCCCCCCCCCCCC[P+](CCCCCC)(CCCCCC)CCCCCC
activity coefficient (313.15 K): 0.77 ± 0.05 | activity coefficient (323.15 K): 0.81 ± 0.05 | activity coefficient (333.15 K): 0.88 ± 0.06 | activity coefficient (343.15 K): 0.95 ± 0.06

C=CCCCCCCC [1-nonene] + CC(CC(C)(C)C)CP(=O)([O-])CC(C)CC(C)(C)C.CCCCCCCCCCCCCC[P+](CCCCCC)(CCCCCC)CCCCCC
activity coefficient (313.15 K): 0.91 ± 0.06 | activity coefficient (323.15 K): 0.95 ± 0.06 | activity coefficient (333.15 K): 1.08 ± 0.07 | activity coefficient (343.15 K): 1.14 ± 0.07

CC(C)CC(C)(C)C [2,2,4-trimethylpentane] + CC(CC(C)(C)C)CP(=O)([O-])CC(C)CC(C)(C)C.CCCCCCCCCCCCCC[P+](CCCCCC)(CCCCCC)CCCCCC
activity coefficient (313.15 K): 0.92 ± 0.06 | activity coefficient (323.15 K): 0.96 ± 0.06 | activity coefficient (333.15 K): 1.04 ± 0.07 | activity coefficient (343.15 K): 1.14 ± 0.07

CCC(C)(C)C [2,2-dimethylbutane] + CC(CC(C)(C)C)CP(=O)([O-])CC(C)CC(C)(C)C.CCCCCCCCCCCCCC[P+](CCCCCC)(CCCCCC)CCCCCC
activity coefficient (313.15 K): 0.78 ± 0.05 | activity coefficient (323.15 K): 0.82 ± 0.05 | activity coefficient (333.15 K): 0.9 ± 0.06 | activity coefficient (343.15 K): 0.97 ± 0.06

CC(C)=O [acetone] + CC(CC(C)(C)C)CP(=O)([O-])CC(C)CC(C)(C)C.CCCCCCCCCCCCCC[P+](CCCCCC)(CCCCCC)CCCCCC
activity coefficient (313.15 K): 0.7 ± 0.05 | activity coefficient (323.15 K): 0.72 ± 0.05 | activity coefficient (333.15 K): 0.78 ± 0.05 | activity coefficient (343.15 K): 0.83 ± 0.05

CC#N [acetonitrile] + CC(CC(C)(C)C)CP(=O)([O-])CC(C)CC(C)(C)C.CCCCCCCCCCCCCC[P+](CCCCCC)(CCCCCC)CCCCCC
activity coefficient (313.15 K): 1.34 ± 0.09 | activity coefficient (323.15 K): 1.4 ± 0.09 | activity coefficient (333.15 K): 1.41 ± 0.09 | activity coefficient (343.15 K): 1.46 ± 0.1

c1ccccc1 [benzene] + CC(CC(C)(C)C)CP(=O)([O-])CC(C)CC(C)(C)C.CCCCCCCCCCCCCC[P+](CCCCCC)(CCCCCC)CCCCCC
activity coefficient (313.15 K): 0.42 ± 0.04 | activity coefficient (323.15 K): 0.45 ± 0.04 | activity coefficient (333.15 K): 0.49 ± 0.04 | activity coefficient (343.15 K): 0.52 ± 0.04

CCCCO [butan-1-ol] + CC(CC(C)(C)C)CP(=O)([O-])CC(C)CC(C)(C)C.CCCCCCCCCCCCCC[P+](CCCCCC)(CCCCCC)CCCCCC
activity coefficient (333.15 K): 0.11 ± 0.03 | activity coefficient (343.15 K): 0.12 ± 0.03

CCC(C)=O [butanone] + CC(CC(C)(C)C)CP(=O)([O-])CC(C)CC(C)(C)C.CCCCCCCCCCCCCC[P+](CCCCCC)(CCCCCC)CCCCCC
activity coefficient (313.15 K): 0.65 ± 0.04 | activity coefficient (323.15 K): 0.67 ± 0.05 | activity coefficient (333.15 K): 0.72 ± 0.05 | activity coefficient (343.15 K): 0.77 ± 0.05

C1=CCCCC1 [cyclohexene] + CC(CC(C)(C)C)CP(=O)([O-])CC(C)CC(C)(C)C.CCCCCCCCCCCCCC[P+](CCCCCC)(CCCCCC)CCCCCC
activity coefficient (313.15 K): 0.57 ± 0.04 | activity coefficient (323.15 K): 0.59 ± 0.04 | activity coefficient (333.15 K): 0.64 ± 0.04 | activity coefficient (343.15 K): 0.68 ± 0.05

C1CCCCCCC1 [cyclooctane] + CC(CC(C)(C)C)CP(=O)([O-])CC(C)CC(C)(C)C.CCCCCCCCCCCCCC[P+](CCCCCC)(CCCCCC)CCCCCC
activity coefficient (313.15 K): 0.7 ± 0.05 | activity coefficient (323.15 K): 0.71 ± 0.05 | activity coefficient (333.15 K): 0.77 ± 0.05 | activity coefficient (343.15 K): 0.79 ± 0.05

CCCCCCCCCC [decane] + CC(CC(C)(C)C)CP(=O)([O-])CC(C)CC(C)(C)C.CCCCCCCCCCCCCC[P+](CCCCCC)(CCCCCC)CCCCCC
activity coefficient (313.15 K): 1.22 ± 0.08 | activity coefficient (323.15 K): 1.28 ± 0.08 | activity coefficient (333.15 K): 1.33 ± 0.09 | activity coefficient (343.15 K): 1.39 ± 0.09

CCO [ethanol] + CC(CC(C)(C)C)CP(=O)([O-])CC(C)CC(C)(C)C.CCCCCCCCCCCCCC[P+](CCCCCC)(CCCCCC)CCCCCC
activity coefficient (323.15 K): 0.04 | activity coefficient (333.15 K): 0.06 | activity coefficient (343.15 K): 0.07 ± 0.03

CCc1ccccc1 [ethylbenzene] + CC(CC(C)(C)C)CP(=O)([O-])CC(C)CC(C)(C)C.CCCCCCCCCCCCCC[P+](CCCCCC)(CCCCCC)CCCCCC
activity coefficient (313.15 K): 0.57 ± 0.04 | activity coefficient (323.15 K): 0.6 ± 0.04 | activity coefficient (333.15 K): 0.65 ± 0.04 | activity coefficient (343.15 K): 0.68 ± 0.05

CCCCCC [hexane] + CCCCCCCCCCCCCCCC
activity coefficient (298.15 K): 0.874 ± 0.056

CO [methanol] + CC(CC(C)(C)C)CP(=O)([O-])CC(C)CC(C)(C)C.CCCCCCCCCCCCCC[P+](CCCCCC)(CCCCCC)CCCCCC
activity coefficient (313.15 K): 0.03 | activity coefficient (323.15 K): 0.04 | activity coefficient (333.15 K): 0.05 | activity coefficient (343.15 K): 0.06

CC1CCCCC1 [methylcyclohexane] + CC(CC(C)(C)C)CP(=O)([O-])CC(C)CC(C)(C)C.CCCCCCCCCCCCCC[P+](CCCCCC)(CCCCCC)CCCCCC
activity coefficient (313.15 K): 0.64 ± 0.04 | activity coefficient (323.15 K): 0.68 ± 0.05 | activity coefficient (333.15 K): 0.73 ± 0.05 | activity coefficient (343.15 K): 0.78 ± 0.05

CCCCCCCCC [nonane] + CC(CC(C)(C)C)CP(=O)([O-])CC(C)CC(C)(C)C.CCCCCCCCCCCCCC[P+](CCCCCC)(CCCCCC)CCCCCC
activity coefficient (313.15 K): 1.04 ± 0.07 | activity coefficient (323.15 K): 1.11 ± 0.07 | activity coefficient (333.15 K): 1.23 ± 0.08 | activity coefficient (343.15 K): 1.25 ± 0.08

CCCO [propan-1-ol] + CC(CC(C)(C)C)CP(=O)([O-])CC(C)CC(C)(C)C.CCCCCCCCCCCCCC[P+](CCCCCC)(CCCCCC)CCCCCC
activity coefficient (323.15 K): 0.07 ± 0.03 | activity coefficient (333.15 K): 0.08 ± 0.03 | activity coefficient (343.15 K): 0.09 ± 0.03

C1CCOC1 [tetrahydrofuran] + CC(CC(C)(C)C)CP(=O)([O-])CC(C)CC(C)(C)C.CCCCCCCCCCCCCC[P+](CCCCCC)(CCCCCC)CCCCCC
activity coefficient (313.15 K): 0.43 ± 0.04 | activity coefficient (323.15 K): 0.45 ± 0.04 | activity coefficient (333.15 K): 0.49 ± 0.04 | activity coefficient (343.15 K): 0.52 ± 0.04

c1ccsc1 [thiophene] + CC(CC(C)(C)C)CP(=O)([O-])CC(C)CC(C)(C)C.CCCCCCCCCCCCCC[P+](CCCCCC)(CCCCCC)CCCCCC
activity coefficient (313.15 K): 0.35 ± 0.03 | activity coefficient (323.15 K): 0.4 ± 0.03 | activity coefficient (333.15 K): 0.41 ± 0.03 | activity coefficient (343.15 K): 0.44 ± 0.04

Cc1ccccc1 [toluene] + CC(CC(C)(C)C)CP(=O)([O-])CC(C)CC(C)(C)C.CCCCCCCCCCCCCC[P+](CCCCCC)(CCCCCC)CCCCCC
activity coefficient (313.15 K): 0.5 ± 0.04 | activity coefficient (323.15 K): 0.51 ± 0.04 | activity coefficient (333.15 K): 0.56 ± 0.04 | activity coefficient (343.15 K): 0.59 ± 0.04

O [water] + CC(CC(C)(C)C)CP(=O)([O-])CC(C)CC(C)(C)C.CCCCCCCCCCCCCC[P+](CCCCCC)(CCCCCC)CCCCCC
activity coefficient (313.15 K): 0.26 ± 0.03 | activity coefficient (323.15 K): 0.27 ± 0.03 | activity coefficient (333.15 K): 0.3 ± 0.03 | activity coefficient (343.15 K): 0.31 ± 0.03
